# Measurements published in patent publication US20150191469A1, “COMPOUNDS AND METHODS FOR TREATING HIV” (priority 2012, published 2015).
# System: HIV
# Assay: MT4 assay: antiviral HIV activity (cell protection, cell titer glo readout at 96 hours)
# Assay type: cell-based
# Settings: Human immunodeficiency virus 1, MT4, 96 h, MT4 cells, cell titer glo readout at 96 hours, 10 point dose response; read-out: HIV MT4 Assay IC50
# Experimental: Antiviral HIV activity and cytotoxicity values for compounds of the invention from Table 1 were measured in parallel in the HTLV-1 transformed cell line MT-4 based on the method previously described (Hazen et al., 2007, In vitro antiviral activity of the novel, tyrosyl-based human immunodeficiency virus (HIV) type 1 protease inhibitor brecanavir (GW640385) in combination with other antiretrovirals and against a panel of protease inhibitor-resistant HIV (Hazen et al., “In vitro antiviral activity of the novel, tyrosyl-based human immunodeficiency virus (HIV) type 1 protease inhibitor brecanavir (GW640385) in combination with other antiretrovirals and against a panel of protease inhibitor-resistant HIV”, Antimicrob. Agents Chemother. 2007, 51: 3147-3154; and Pauwels et al., “Sensitive and rapid assay on MT-4 cells for the detection of antiviral compounds against the AIDS virus”, J. of Virological Methods 1987, 16: 171-185).
# Luciferase activity was measured 96 hours later by adding a cell titer glo (Promega, Madison, Wis.). Percent inhibition of cell protection data was plotted relative to no compound control. Under the same condition, cytotoxicity of the compounds was determined using cell titer Glo™ (Promega, Madison, Wis.). IC50s were determined from a 10 point dose response curve using 3-4-fold serial dilution for each compound, which spans a concentration range >1000 fold.
# These values are plotted against the molar compound concentrations using the standard four parameter logistic equation:
# y=((Vmax*x̂n)/(K̂n+x̂n))+Y2
# Y2=minimum y n=slope factor
# Vmax=maximum y x=compound concentration [M]
row,SMILES,IC50
1,"Cc1nc2c(cc(-c3ccnc(-c4ccc5c(cnn5C)c4)c3)n2C)c(-c2cc(F)c3c(c2C)NCCO3)c1[C@H](OC(C)(C)C)C(=O)O (atropisomer, axis not shown) [Example 3, (2S)-2-(tert-butoxy)-2-[4-(8-fluoro-5-methyl-3,4-dihydro-2H-1,4-benzoxazin-6-yl)-1,6-dimethyl-2-[2-(1-methyl-1H-indazol-5-yl)pyridin-4-yl]-1H-pyrrolo[2,3-b]pyridin-5-yl]acetic acid]",1.9 nM
2,"Cc1nc2c(cc(-c3ccnc(-c4cnc5c(cnn5C)c4)c3)n2C)c(-c2ccc3c(c2C)CCCO3)c1[C@H](OC(C)(C)C)C(=O)O (atropisomer, axis not shown) [Example 4, (2S)-2-(tert-butoxy)-2-[1,6-dimethyl-2-(2-{1-methyl-1H-pyrazolo[3,4-b]pyridin-5-yl}pyridin-4-yl)-4-(5-methyl-3,4-dihydro-2H-1-benzopyran-6-yl)-1H-pyrrolo[2,3-b]pyridin-5-yl]acetic acid]",1.6 nM
3,"Cc1nc2c(cc(-c3ccnc(-c4cccnc4)c3)n2C)c(-c2cc(F)c3c(c2C)CCCO3)c1[C@H](OC(C)(C)C)C(=O)O (atropisomer, axis not shown) [Example 6, (2S)-2-(tert-butoxy)-2-[4-(8-fluoro-5-methyl-3,4-dihydro-2H-1-benzopyran-6-yl)-1,6-dimethyl-2-[2-(pyridin-3-yl)pyridin-4-yl]-1H-pyrrolo[2,3-b]pyridin-5-yl]acetic acid]",14.8 nM
4,"Cc1nc2c(cc(-c3ccnc(-c4ccc5c(c4)CCN5C)c3)n2C)c(-c2cc(F)c3c(c2C)CCCO3)c1[C@H](OC(C)(C)C)C(=O)O (atropisomer, axis not shown) [Example 8, (2S)-2-(tert-butoxy)-2-[4-(8-fluoro-5-methyl-3,4-dihydro-2H-1-benzopyran-6-yl)-1,6-dimethyl-2-[2-(1-methyl-2,3-dihydro-1H-indol-5-yl)pyridin-4-yl]-1H-pyrrolo[2,3-b]pyridin-5-yl]acetic acid]",5.6 nM
5,"Cc1nc2c(cc(-c3ccnc(-c4cnn(C5CCOCC5)c4)c3)n2C)c(-c2cc(F)c3c(c2C)CCCO3)c1[C@H](OC(C)(C)C)C(=O)O (atropisomer, axis not shown) [Example 9, (2S)-2-(tert-butoxy)-2-[4-(8-fluoro-5-methyl-3,4-dihydro-2H-1-benzopyran-6-yl)-1,6-dimethyl-2-{2-[1-(oxan-4-yl)-1H-pyrazol-4-yl]pyridin-4-yl}-1H-pyrrolo[2,3-b]pyridin-5-yl]acetic acid]",16.2 nM
6,"Cc1nc2c(cc(-c3ccnc(N4CCN(C)CC4)c3)n2C)c(-c2cc(F)c3c(c2C)CCCO3)c1[C@H](OC(C)(C)C)C(=O)O (atropisomer, axis not shown) [Example 10, (2S)-2-(tert-butoxy)-2-[4-(8-fluoro-5-methyl-3,4-dihydro-2H-1-benzopyran-6-yl)-1,6-dimethyl-2-[2-(4-methylpiperazin-1-yl)pyridin-4-yl]-1H-pyrrolo[2,3-b]pyridin-5-yl]acetic acid]",30.3 nM
7,"Cc1nc2c(cc(C(=O)N3CCN(c4ccc5c(cnn5C)c4)CC3)n2C)c(-c2cc(F)c3c(c2C)CCCO3)c1[C@H](OC(C)(C)C)C(=O)O (atropisomer, axis not shown) [Example 11, (2S)-2-(tert-butoxy)-2-[4-(8-fluoro-5-methyl-3,4-dihydro-2H-1-benzopyran-6-yl)-1,6-dimethyl-2-{[4-(1-methyl-1H-indazol-5-yl)piperazin-1-yl]carbonyl}-1H-pyrrolo[2,3-b]pyridin-5-yl]acetic acid]",14.8 nM
8,"Cc1nc2c(cc(-c3ccc(-c4ccc5c(cnn5C)c4)nc3)n2C)c(-c2cc(F)c3c(c2C)CCCO3)c1[C@H](OC(C)(C)C)C(=O)O (atropisomer, axis not shown) [Example 18, (2S)-2-(tert-butoxy)-2-[4-(8-fluoro-5-methyl-3,4-dihydro-2H-1-benzopyran-6-yl)-1,6-dimethyl-2-[6-(1-methyl-1H-indazol-5-yl)pyridin-3-yl]-1H-pyrrolo[2,3-b]pyridin-5-yl]acetic acid]",26.3 nM
9,"Cc1nc2c(cc(-c3ccnc(N4CCN(C5COC5)CC4)c3)n2C)c(-c2cc(F)c3c(c2C)CCCO3)c1[C@H](OC(C)(C)C)C(=O)O (atropisomer, axis not shown) [Example 25, (2S)-2-(tert-butoxy)-2-[4-(8-fluoro-5-methyl-3,4-dihydro-2H-1-benzopyran-6-yl)-1,6-dimethyl-2-{2-[4-(oxetan-3-yl)piperazin-1-yl]pyridin-4-yl}-1H-pyrrolo[2,3-b]pyridin-5-yl]acetic acid]",10.6 nM
10,"Cc1ccc(-c2cc(-c3cc4c(-c5cc(F)c6c(c5C)CCCO6)c([C@H](OC(C)(C)C)C(=O)O)c(C)nc4n3C)ccn2)cc1 (atropisomer, axis not shown) [Example 31]",11 nM
11,"Cc1nc2c(cc(-c3ccnc(-c4ccc5nccn5c4)c3)n2C)c(-c2cc(F)c3c(c2C)CCCO3)c1[C@H](OC(C)(C)C)C(=O)O (atropisomer, axis not shown) [Example 34]",4.2 nM
12,"Cc1nc2c(cc(-c3ccnc(-c4ccc5nnn(C)c5c4)c3)n2C)c(-c2cc(F)c3c(c2C)CCCO3)c1[C@H](OC(C)(C)C)C(=O)O (atropisomer, axis not shown) [Example 35]",10.9 nM
13,"Cc1nc2c(cc(-c3ccnc(-c4ccc5c(c4)C(C)(C)CO5)c3)n2C)c(-c2cc(F)c3c(c2C)CCCO3)c1[C@H](OC(C)(C)C)C(=O)O (atropisomer, axis not shown) [Example 37]",47.4 nM
14,"Cc1nc2c(cc(-c3ccnc(C4=CCN(C)CC4)c3)n2C)c(-c2cc(F)c3c(c2C)CCCO3)c1[C@H](OC(C)(C)C)C(=O)O (atropisomer, axis not shown) [Example 38]",17.9 nM
15,"Cc1nc2c(cc(-c3ccnc(-c4ccc5ccccc5c4)c3)n2C)c(-c2cc(F)c3c(c2C)CCCO3)c1[C@H](OC(C)(C)C)C(=O)O (atropisomer, axis not shown) [Example 39]",17.3 nM
16,"Cc1nc2c(cc(-c3ccnc(-c4ccc5ncccc5c4)c3)n2C)c(-c2cc(F)c3c(c2C)CCCO3)c1[C@H](OC(C)(C)C)C(=O)O (atropisomer, axis not shown) [Example 40]",2.2 nM
17,"Cc1nc2c(cc(-c3ccnc(-c4ccc(N5CCCC5)nc4)c3)n2C)c(-c2cc(F)c3c(c2C)CCCO3)c1[C@H](OC(C)(C)C)C(=O)O (atropisomer, axis not shown) [Example 45]",4.8 nM
18,"Cc1nc2c(cc(-c3ccnc(-c4ccc5c(c4)CCN(C4COC4)C5)c3)n2C)c(-c2cc(F)c3c(c2C)CCCO3)c1[C@H](OC(C)(C)C)C(=O)O (atropisomer, axis not shown) [Example 47]",5.6 nM
19,"Cc1nc2c(cc(-c3ccnc(-c4ccc(O)c(N)c4)c3)n2C)c(-c2cc(F)c3c(c2C)CCCO3)c1[C@H](OC(C)(C)C)C(=O)O (atropisomer, axis not shown) [Example 49]",114 nM

# The remaining lines, values ahead:
row,IC50,SMILES
1,4.1 nM,"Cc1nc2c(cc(-c3ccnc(-c4ccnc(N5CCN(C)CC5)c4)c3)n2C)c(-c2cc(F)c3c(c2C)CCCO3)c1[C@H](OC(C)(C)C)C(=O)O (atropisomer, axis not shown) [Example 30]"
2,34.5 nM,"Cc1nc2c(cc(-c3ccnc(C4=CCCCC4)c3)n2C)c(-c2cc(F)c3c(c2C)CCCO3)c1[C@H](OC(C)(C)C)C(=O)O (atropisomer, axis not shown) [Example 32]"
3,7.2 nM,"Cc1nc2c(cc(-c3ccnc(-c4cnc(N(C)C)nc4)c3)n2C)c(-c2cc(F)c3c(c2C)CCCO3)c1[C@H](OC(C)(C)C)C(=O)O (atropisomer, axis not shown) [Example 33]"
4,8410 nM,"Cc1nc2c(cc(-c3ccnc(-c4cnc(O)nc4)c3)n2C)c(-c2cc(F)c3c(c2C)CCCO3)c1[C@H](OC(C)(C)C)C(=O)O (atropisomer, axis not shown) [Example 36]"
5,4.6 nM,"Cc1nc2c(cc(-c3ccnc(-c4ccc5cnn(C)c5c4)c3)n2C)c(-c2cc(F)c3c(c2C)CCCO3)c1[C@H](OC(C)(C)C)C(=O)O (atropisomer, axis not shown) [Example 41]"
6,3.2 nM,"Cc1nc2c(cc(-c3ccnc(-c4ccc5c(c4C)NCCO5)c3)n2C)c(-c2cc(F)c3c(c2C)CCCO3)c1[C@H](OC(C)(C)C)C(=O)O (atropisomer, axis not shown) [Example 42]"
7,72.9 nM,"Cc1noc(C)c1-c1cc(-c2cc3c(-c4cc(F)c5c(c4C)CCCO5)c([C@H](OC(C)(C)C)C(=O)O)c(C)nc3n2C)ccn1 (atropisomer, axis not shown) [Example 43]"
8,7.8 nM,"Cc1nc2c(cc(-c3ccnc(-c4ccncc4)c3)n2C)c(-c2cc(F)c3c(c2C)CCCO3)c1[C@H](OC(C)(C)C)C(=O)O (atropisomer, axis not shown) [Example 46]"
9,4.4 nM,"Cc1nc2c(cc(-c3ccnc(-c4ccc5c(c4)CN(C4COC4)CC5)c3)n2C)c(-c2cc(F)c3c(c2C)CCCO3)c1[C@H](OC(C)(C)C)C(=O)O (atropisomer, axis not shown) [Example 48]"
10,8.7 nM,"Cc1nc2c(cc(-c3ccnc(-c4ccc5c(c4)NCCO5)c3)n2C)c(-c2cc(F)c3c(c2C)CCCO3)c1[C@H](OC(C)(C)C)C(=O)O (atropisomer, axis not shown) [Example 50]"
11,13.9 nM,"COc1ncc(-c2cc(-c3cc4c(-c5cc(F)c6c(c5C)CCCO6)c([C@H](OC(C)(C)C)C(=O)O)c(C)nc4n3C)ccn2)cn1 (atropisomer, axis not shown) [Example 52]"
